# Assay results: patent US10858367B2, “Compounds” (GLAXOSMITHKLINE INTELLECTUAL PROPERTY DEVELOPMENT LIMITED, priority 2017, dated 2020)
# Molecular target: T1, LRRK2 Ser935 phosphorylation in SH-SY5Y cells over-expressing recombinant full length LRRK2 (Homo sapiens, UniProt Q5S007)
# T1 construct: A BacMam virus expressing full length recombinant LRRK2 was purchased from Invitrogen; host or cells: SH-SY5Y human neuroblastoma cells transduced with BacMam LRRK2 virus
# Assay: Recombinant cellular LRRK2 AlphaScreen assay
# Format: cell-based
# Conditions: human neuroblastoma SH-SY5Y cells, BacMam full length LRRK2, 60 minutes with compound, read-out: pIC50 in the recombinant cellular LRRK2 AlphaScreen assay (converted)
# From the text: b. Recombinant Cellular LRRK2 AlphaScreen Assay
# To determine the activity of compounds against LRRK2 kinase activity in cells, the observed LRRK2 kinase-dependent modulation of LRRK2 Ser 935 phosphorylation (Dzamko et al., 2010, Biochem. J. 430: 405-413) was utilized to develop a quantitative 384 well plate-based immunoassay of LRRK2 Ser935 phosphorylation in the human neuroblastoma cell line SH-SY5Y, engineered to over-express recombinant full length LRRK2 protein.
# A BacMam virus expressing full length recombinant LRRK2 was purchased from Invitrogen and amplified by inoculation of SF-9 cells at MOI 0.3 for 4-5 days in Sf-900 III SFM medium supplemented with 3% fetal bovine serum. Infected cell cultures were then centrifuged at 2000 g for 20 minutes, viral supernatant titer determined by anti-gp64 plaque assay and stored at 4° C.
# Affinity-purified anti-phospho LRRK2 Ser935 sheep polyclonal antibody (Dzamko et al., 2010, Biochem. J. 430: 405-413) was biotinylated by standard methods (PerkinElmer). Anti-LRRK2 rabbit polyclonal antibody was purchased from Novus Biologicals. AlphaScreen Protein A IgG Kit (including acceptor and donor beads) was purchased from Perkin Elmer.
# SH-SY5Y cells were grown in DMEM/F12 medium with 10% dialysed fetal bovine serum and harvested by treatment with 0.5% trypsin-EDTA for 5 minutes at 37° C. followed by centrifugation at 1000 rpm for 4 minutes. The cell pellet was resuspended in Opti-MEM reduced serum media (Invitrogen) at 200,000 cells/ml and mixed with the BacMam LRRK2 virus at MOI=50. 50 μl cell solutions were then dispensed to each well of a 384-well plate and incubated at 37° C., 5% CO2 for 24 hours.
# Serial dilutions of test compounds were prepared in Opti-MEM reduced serum media (Invitrogen) and 5.6 ul transferred from compound plate to cell assay plate to achieve a top final assay concentration of 10 uM. DMSO was used in certain wells as controls. Cells were incubated at 37° C., 5% CO2 for 60 minutes. The medium was then removed and cells lysed by addition of 20 ul cell lysis buffer (Cell Signaling Technology) and incubation at 4° C. for 20 minutes. 10 ul of antibody/acceptor bead mix [(1/1000 biotinylated-pS935 LRRK2 antibody, 1/1000 total-LRRK2 antibody, 1/100 Acceptor beads in AlphaScreen detection buffer (25 mM Hepes (pH 7.4), 0.5% Triton X-100, 1 mg/ml Dextran 500 and 0.1% BSA)] was then added to each well and plates incubated for 2 hours at ambient temperature in the dark. 10 μl of donor beads solution (1/33.3 donor beads in AlphaScreen detection buffer) was then added to each well. Following incubation for a further 2 hours at ambient temperature in the dark, plates were read on an EnVision™ plate reader at emission 520-620 nm with excitation 680 nm. Dose response curve data was based on sigmoidal dose-response model.
# T1 sequence (Q5S007 whole entry): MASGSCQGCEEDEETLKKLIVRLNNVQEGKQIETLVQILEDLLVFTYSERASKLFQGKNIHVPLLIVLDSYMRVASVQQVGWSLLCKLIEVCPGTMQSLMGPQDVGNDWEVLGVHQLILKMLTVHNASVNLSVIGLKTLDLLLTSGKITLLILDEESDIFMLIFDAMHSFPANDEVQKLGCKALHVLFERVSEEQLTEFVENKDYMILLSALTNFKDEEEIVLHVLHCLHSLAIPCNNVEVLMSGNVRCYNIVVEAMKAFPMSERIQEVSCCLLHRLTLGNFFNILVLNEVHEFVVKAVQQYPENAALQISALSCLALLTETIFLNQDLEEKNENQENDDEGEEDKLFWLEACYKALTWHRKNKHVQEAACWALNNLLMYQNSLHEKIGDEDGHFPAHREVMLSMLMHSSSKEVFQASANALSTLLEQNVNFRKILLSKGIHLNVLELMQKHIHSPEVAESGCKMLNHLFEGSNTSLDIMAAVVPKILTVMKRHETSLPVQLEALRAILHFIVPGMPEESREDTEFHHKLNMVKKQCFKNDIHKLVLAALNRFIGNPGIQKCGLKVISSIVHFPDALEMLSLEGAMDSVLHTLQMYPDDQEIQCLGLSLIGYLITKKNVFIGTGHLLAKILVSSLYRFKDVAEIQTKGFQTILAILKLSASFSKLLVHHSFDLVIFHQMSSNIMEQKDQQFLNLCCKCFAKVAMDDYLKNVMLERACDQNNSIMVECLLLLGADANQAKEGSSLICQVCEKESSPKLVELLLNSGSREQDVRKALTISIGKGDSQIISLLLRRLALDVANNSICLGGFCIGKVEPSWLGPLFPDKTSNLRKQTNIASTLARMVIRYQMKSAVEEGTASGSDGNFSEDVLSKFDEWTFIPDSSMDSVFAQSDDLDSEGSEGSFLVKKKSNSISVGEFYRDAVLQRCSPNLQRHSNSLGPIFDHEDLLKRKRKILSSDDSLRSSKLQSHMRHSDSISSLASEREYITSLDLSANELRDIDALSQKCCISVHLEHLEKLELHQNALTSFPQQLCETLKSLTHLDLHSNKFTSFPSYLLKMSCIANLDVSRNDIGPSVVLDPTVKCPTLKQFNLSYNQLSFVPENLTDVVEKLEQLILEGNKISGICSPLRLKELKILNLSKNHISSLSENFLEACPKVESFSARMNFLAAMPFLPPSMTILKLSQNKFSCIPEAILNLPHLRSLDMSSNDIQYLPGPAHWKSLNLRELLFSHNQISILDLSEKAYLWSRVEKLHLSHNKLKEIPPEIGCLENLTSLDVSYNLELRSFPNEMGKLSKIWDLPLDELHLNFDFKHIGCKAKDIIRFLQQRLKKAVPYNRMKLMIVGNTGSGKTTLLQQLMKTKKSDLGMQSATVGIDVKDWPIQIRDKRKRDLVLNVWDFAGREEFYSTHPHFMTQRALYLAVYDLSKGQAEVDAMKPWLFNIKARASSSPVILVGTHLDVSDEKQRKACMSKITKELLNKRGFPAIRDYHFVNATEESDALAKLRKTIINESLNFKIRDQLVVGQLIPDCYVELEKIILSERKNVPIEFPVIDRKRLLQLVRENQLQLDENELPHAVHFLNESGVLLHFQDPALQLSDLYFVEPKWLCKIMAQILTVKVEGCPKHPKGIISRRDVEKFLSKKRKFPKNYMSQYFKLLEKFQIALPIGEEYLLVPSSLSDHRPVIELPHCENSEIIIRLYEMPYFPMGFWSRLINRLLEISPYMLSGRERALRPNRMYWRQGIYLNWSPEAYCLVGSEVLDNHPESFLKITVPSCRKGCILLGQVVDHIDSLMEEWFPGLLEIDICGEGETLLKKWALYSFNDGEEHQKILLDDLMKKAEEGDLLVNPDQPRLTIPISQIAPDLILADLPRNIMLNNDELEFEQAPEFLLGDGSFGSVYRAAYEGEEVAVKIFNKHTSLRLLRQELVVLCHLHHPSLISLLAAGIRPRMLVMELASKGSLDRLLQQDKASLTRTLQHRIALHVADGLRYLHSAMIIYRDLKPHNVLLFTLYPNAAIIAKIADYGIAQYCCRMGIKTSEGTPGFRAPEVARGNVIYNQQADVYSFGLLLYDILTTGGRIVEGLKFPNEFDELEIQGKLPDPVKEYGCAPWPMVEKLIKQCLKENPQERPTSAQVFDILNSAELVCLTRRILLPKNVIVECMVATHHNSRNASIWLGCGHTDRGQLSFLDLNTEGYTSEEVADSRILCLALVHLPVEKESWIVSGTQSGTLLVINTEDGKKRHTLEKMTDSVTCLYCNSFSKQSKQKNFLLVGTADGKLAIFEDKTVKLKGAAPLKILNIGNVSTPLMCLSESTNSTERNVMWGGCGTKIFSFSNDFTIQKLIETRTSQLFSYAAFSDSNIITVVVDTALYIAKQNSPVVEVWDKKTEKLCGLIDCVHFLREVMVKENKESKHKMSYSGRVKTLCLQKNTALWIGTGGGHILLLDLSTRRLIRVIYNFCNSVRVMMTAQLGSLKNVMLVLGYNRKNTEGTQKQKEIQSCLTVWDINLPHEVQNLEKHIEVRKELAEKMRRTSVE
row,IC50 [nM],SMILES
1,≤ 1000,"COc1nc(N2C[C@H]3C[C@@H]2CO3)cc(-n2ncc3cc(C)c(C4CCN(CCF)CC4)cc32)n1 [Example E37, (1R,4R)-5-(6-(6-(1-(2-fluoroethyl)piperidin-4-yl)-5-methyl-1H-indazol-1-yl)-2-methoxypyrimidin-4-yl)-2-oxa-5-azabicyclo[2.2.1]heptane]"
2,≤ 1000,"COc1nc(N2C[C@@H]3C[C@H]2CO3)cc(-n2ncc3cc(C)c(C4CCN(CCF)CC4)cc32)n1 [Example E38, (1S,4S)-5-(6-(6-(1-(2-fluoroethyl)piperidin-4-yl)-5-methyl-1H-indazol-1-yl)-2-methoxypyrimidin-4-yl)-2-oxa-5-azabicyclo[2.2.1]heptane]"
3,≤ 1000,"Cc1nc(N2C[C@H]3C[C@@H]2CO3)cc(-n2ncc3cc(C)c(C4CCN(C5COC5)CC4)cc32)n1 [Example E39, (1R,4R)-5-(2-methyl-6-(5-methyl-6-(1-(oxetan-3-yl)piperidin-4-yl)-1H-indazol-1-yl)pyrimidin-4-yl)-2-oxa-5-azabicyclo[2.2.1]heptane]"
4,≤ 1000,"Cc1nc(N2C[C@@H]3C[C@H]2CO3)cc(-n2ncc3cc(C)c(C4CCN(C5COC5)CC4)cc32)n1 [Example E40, (1S,4S)-5-(2-methyl-6-(5-methyl-6-(1-(oxetan-3-yl)piperidin-4-yl)-1H-indazol-1-yl)pyrimidin-4-yl)-2-oxa-5-azabicyclo[2.2.1]heptane]"
5,≤ 1000,"COc1nc(N2CC3CCC(C2)O3)cc(-n2ncc3cc(C)c(C4CCN(C5COC5)CC4)cc32)n1 [Example E41, 3-(2-Methoxy-6-(5-methyl-6-(1-(oxetan-3-yl)piperidin-4-yl)-1H-indazol-1-yl)pyrimidin-4-yl)-8-oxa-3-azabicyclo[3.2.1]octane]"
6,≤ 1000,"Cc1nc(N2CC3CCC(C2)O3)cc(-n2ncc3cc(C)c(C4CCN(C5COC5)CC4)cc32)n1 [Example E42, 3-(2-Methyl-6-(5-methyl-6-(1-(oxetan-3-yl)piperidin-4-yl)-1H-indazol-1-yl)pyrimidin-4-yl)-8-oxa-3-azabicyclo[3.2.1]octane]"
7,≤ 1000,"Cc1nc(N2C[C@H]3C[C@@H]2CO3)cc(-n2ncc3cc(C)c(C4CCN(CCO)CC4)cc32)n1 [Example E51, 2-(4-(1-(6-((1R,4R)-2-oxa-5-azabicyclo[2.2.1]heptan-5-yl)-2-methylpyrimidin-4-yl)-5-methyl-1H-indazol-6-yl)piperidin-1-yl)ethanol]"
8,≤ 1000,"Cc1nc(N2C[C@@H]3C[C@H]2CO3)cc(-n2ncc3cc(C)c(C4CCN(CCO)CC4)cc32)n1 [Example E52, 2-(4-(1-(6-((1S,4S)-2-oxa-5-azabicyclo[2.2.1]heptan-5-yl)-2-methylpyrimidin-4-yl)-5-methyl-1H-indazol-6-yl)piperidin-1-yl)ethanol]"

row,SMILES,IC50 [nM]
1,"COc1nc(N2CC3CC(C2)O3)cc(-n2ncc3cc(C)c(C4CCN(C5COC5)CC4)cc32)n1 [Example E43, 3-(2-Methoxy-6-(5-methyl-6-(1-(oxetan-3-yl)piperidin-4-yl)-1H-indazol-1-yl)pyrimidin-4-yl)-6-oxa-3-azabicyclo[3.1.1]heptane]",≤ 1000
2,"Cc1nc(N2CC3CC(C2)O3)cc(-n2ncc3cc(C)c(C4CCN(C5COC5)CC4)cc32)n1 [Example E44, 3-(2-Methyl-6-(5-methyl-6-(1-(oxetan-3-yl)piperidin-4-yl)-1H-indazol-1-yl)pyrimidin-4-yl)-6-oxa-3-azabicyclo[3.1.1]heptane]",≤ 1000
3,"Cc1nc(N2C3CCC2COC3)cc(-n2ncc3cc(C)c(C4CCN(C5COC5)CC4)cc32)n1 [Example E45, 8-(2-methyl-6-(5-methyl-6-(1-(oxetan-3-yl)piperidin-4-yl)-1H-indazol-1-yl)pyrimidin-4-yl)-3-oxa-8-azabicyclo[3.2.1]octane]",≤ 1000
4,"Cc1nc(N2C3COCC2COC3)cc(-n2ncc3cc(C)c(C4CCN(C5COC5)CC4)cc32)n1 [Example E46, 9-(2-methyl-6-(5-methyl-6-(1-(oxetan-3-yl)piperidin-4-yl)-1H-indazol-1-yl)pyrimidin-4-yl)-3,7-dioxa-9-azabicyclo[3.3.1]nonane]",≤ 1000
